Test [1] in a line: HPLC analysis of peptide uptake by hair. It counts as binding, human. The note with it: no dye; for % Uptake time = 0 min / % Uptake time = 30 min / % Uptake time = 60 min: 20 mM Tris pH 7.2, 0.15 M NaCl, room temperature, peptide 0.1 mg/mL (IB5A, A5) or 0.05 mg/mL (HC 71, HC 74); for uptake onto hair compared with the same peptide without the charged groups (in words): HC 71 vs IB5, HC 74 vs A5. As for the experimental part: The purpose of this Example was to compare the speed of uptake by measuring the amount of various peptides including peptides of the invention bound to hair at different time points using a high performance liquid chromatography (HPLC) method. The peptides, HC 71, HC 74, IB5 (the hair-binding peptide sequence in HC 71), and A5 (the hair-binding peptide sequence in HC 74), were dissolved in 10 mL of 20 mM Tris, pH 7.2 buffer containing 0.15 M NaCl to give the peptide concentrations shown in Table 11. Natural white hair, 0.54 g, (International Hair Importers & Products Inc., Bellerose, N.Y.) was pre-equilibrated with 10 mL of Tris buffer for 30 min with mixing at room temperature. Then, the buffer was drained from the hair and 10 mL of one of the peptide solutions was added. The hair was incubated with the peptide solution at room temperature without mixing and samples were taken at 0, 30 and 60 min for HPLC analysis. For peptide uptake measurements in the presence of Acid Red 33 dye, the peptide solution was mixed 1:1 with an aqueous solution of the dye (0.5 wt %). Natural white hair (0.65 g) pre-wet with deionized water, was added to the peptide solutions and the solutions were incubated at room temperature without mixing. Samples were taken at time 0, 30, and 60 min for analysis by HPLC. The samples were analyzed using HPLC to determine the concentration of the peptide remaining in solution, and by difference, the amount of peptide taken up by the hair. The HPLC analysis was done using an Agilent liquid chromatograph (Agilent Technologies Inc., Wilmington, Del.) with a 5 μm Zorbax Eclipse XDB-C18 column (Agilent Technologies Inc.). The sample was diluted with distilled water containing 0.1% trifluoroacetic acid (typically a 10-fold dilution), and 5 to 50 μL was injected using a 100 μL injection loop. A solvent gradient elution was used with two solvents: Solvent A, consisting of acetonitrile with 0.1% aqueous trifluoracetic acid, and Solvent B, consisting of water with 0.1% trifluoroacetic acid. The gradient was from 10% acetonitrile to 80% acetonitrile at a rate of 1%/min over a period of 70 min. The flow rate was 1.25 mL/min. Detection was done with a photodiode array detector at 218 nm, 230 nm, and 278 nm.

A short description of test [2]: Co-application of multi-block peptide with semi-permanent dye (Arianor Ebony), color retention. The note with it: difference in Delta E between peptide sample and peptide free control after 3 embrocation cycles (about 12 manual shampoos); pH 8.5-9.0; >2 benefit, >4 substantial benefit. Further details: species or system human; key: ΔE of peptide sample minus peptide-free control; larger = better retention. As for the experimental part: A 0.5% aqueous solution of Arianor Ebony (Sensient Technologies Corp, Milwaukee, Wis.) containing 3% benzyl alcohol and 0.05% diazolidinyl urea (biocide) was prepared. Dye insolubles were removed by filtration and the pH of the dye solution was adjusted to 8.50-9.0, using ethanolamine.
Approximately 1 mL of the dye solution was added to selected wells of a 24-well plate (Thomson Instrument Co., Oceanside, Calif.; part # 931565). A multi-block peptide (see Table 12) was dissolved in a solution consisting of 3 wt % benzyl alcohol and 95 wt % water to yield a peptide concentration of 2 wt % or approximately 20 mg/mL. The pH was adjusted to 8.5-9.0 using ethanolamine. The peptide solution was then pipetted into test wells containing dye solution in the amount of 1 mL or 0.2 mL respectively. The total volume in each test well was then adjusted to 2 mL where necessary using 3% aqueous benzyl alcohol (pH adjusted to 8.5-9.0 with ethanolamine). Peptide free controls consisted of 1 mL of dye solution diluted to 2 mL with the pH adjusted aqueous benzyl alcohol solution.
Baseline […] readings were made on one inch long tresses (see below) using an X-RITE® SP78™ Sphere Spectrophotometer (X-Rite, Inc., Grandville, Mich.), by placing the hair tress into the photosensor and calculating L*, a* and b* parameters representing the photometer response. All measurements were the average of three individual determinations.
The tresses (potted on one end with resin) of natural white, 85% gray or regular bleached hair (International Hair Importers and Products, Bellerose, N.Y.) were immersed in the peptide/dye solution and the entire well plate was agitated on a VORTEX-GENIE® 2 Mixer (Scientific Industries, Bohemia, N.Y.) at a speed setting of 1 for 30 minutes. The tresses were removed from the wells, rinsed for 30 seconds under flowing deionized water and then air dried.
The following complement of beads was then added to each well containing a hair tress: (8 beads in all; 4 Novagen Coli Rollers Plating Beads—sterilized (EMD Biosciences, San Diego, Calif.; Catalog No. 71013), 2 BioSpec 6.35 mm glass beads (BioSpec Products, Bartlesville, Okla.; Catalog No. 11079635), and 2 BioSpec 3.2 mm Stainless Steel Bead (Catalog No. 11079132ss).
Then 2.5 mL of aqueous 50% Pantene Pro V® shampoo (Proctor & Gamble Co., Cincinnati, Ohio) was pipetted into each well. The plate was placed on a VWR® VX-2500 Multi-tube Vortexer (VWR, West Chester, Pa.) for 5 minutes to simulate shampooing with embrocation. The hair tresses were then rinsed under flowing deionized water and air dried. This cycle was repeated two more times except that the length of time was 10 minutes for both subsequent embrocation cycles. (This treatment was previously determined to simulate approximately 12 manual shampoo cycles.) At the conclusion of the third embrocation cycle L*, a* and b* values were measured and Delta E values (ΔE) were calculated using equation 1 below:
where L*=the lightness variable and a* and b* are the chromaticity coordinates of CIELAB colorspace as defined by the International Commission of Illumination (CIE) (Minolta, Precise Color Communication—Color Control From Feeling to Instrumentation, Minolta Camera Co., 1996).
The Delta E value (ΔE) indicates color retention relative to the non-dyed hair and larger Delta E values indicate better performance. Values listed in the table represent the difference in Delta E values between the peptide-containing sample and the peptide free control. This difference is indicative of color retention after shampoo or water rinse treatments and positive values indicate better performance relative to the peptide free controls (Table 12).

Take “P-EQISGSLVAAPW-KRKRK-D (PEQISGSLVAAPWKRKRKD; Peptide having affinity for hair) [HC 74]”: in test [1], the “% Uptake time = 0 min” value was found to be 0%, the “% Uptake time = 30 min” value is listed as 22%, the “% Uptake time = 60 min” value is 27% and the “uptake onto hair compared with the same peptide without the charged groups (in words)” value is on record as “significantly faster uptake onto hair”. In test [2], the “ΔE Retention Ebony Dye Regular Bleached Hair” value is 0.1 and the “ΔE Retention Ebony dye with Natural White Hair” value amounted to 8.5.

Consider “P-TPPELLHGAPRS-KRKRK-D (PTPPELLHGAPRSKRKRKD; Peptide having affinity for hair) [HC 71]”, for which, in test [1], the “% Uptake time = 0 min” value stood at 0%, the “% Uptake time = 30 min” value worked out at 69%, the “% Uptake time = 60 min” value was found to be 75% and the “uptake onto hair compared with the same peptide without the charged groups (in words)” value is given as “significantly faster uptake onto hair”. Besides, in test [2], the “ΔE Retention Ebony Dye Regular Bleached Hair” value was 1.9 and the “ΔE Retention Ebony dye with Natural White Hair” value was found to be 5.2.

The record behind these values is patent US20080280810A1, “PEPTIDES HAVING AFFINITY FOR BODY SURFACES” (priority 2006, published 2008).
